How the values were obtained:
[1] = system: human prostate carcinoma cell line PC-3; experiment: Rare sugar uptake experiment, sugar content in disrupted cell suspension of PC-3; format: cell-based
Experimental: An uptake amount of a rare sugar, which had been added to a medium, into carcinoma cells was analyzed using the cell lines of three types of cancers. As the rare sugar, four kinds, that is, D-allose, D-allulose (D-psicose), L-allulose (L-psicose), and allitol were used, while D-glucose and fructose were used as a monosaccharide which was not a rare sugar.
Cells of each of the cell lines were cultured in RPMI-1640 media and during culturing, six sugars were each added to the resulting media and cultured. After culturing, an amount of each sugar taken up into the cells was analyzed. The medium to which no sugar was added during culturing was used as a control.
Used were human bladder carcinoma cell lines (RT112, 253), and J82), human prostatic carcinoma cell lines (LNCa, Du145, and PC-3), and human renal cell carcinoma cell lines (ACHN, Caki-I, and Caki-II).
After cells were cultured in RPMI-1640 (2000 mg D-glucose/L) media, the above monosaccharides and rare sugars were added to the resulting media, respectively. Described specifically, they were following seven combinations: RPMI-1640 alone (control), RPMI-1640+D-glucose, RPMI-1640+L-allulose, RPMI-1640+D-allulose, RPMI-1640+D-fructose, RPMI-1640+D-allose, and RPMI-1640+D-allitol. The final concentration of the sugar in the medium was adjusted to 10 mM and no sugar was added in the control.
Five-ml portions of a 3.0×10^4 cells/ml cell suspension prepared using RPMI-1640 were seeded in dishes having a diameter of 6 cm (1.5×10^5 cells/dish) and cultured for 24 hours in the RPMI-1640 medium containing 2000 mg/l of D-glucose as a nutrient source. Twenty-four hours later, the media were changed to the culture solutions containing the monosaccharides and rare sugars described above in 2), respectively, followed by culturing for 48 hours.
After culturing for 48 hours, the attached human carcinoma cells were mechanically separated and collected in a Spitz tube together with the culture solution and floating cells. After the supernatant formed by centrifugation (4° C., 1200 rpm, and 5 minutes) was removed to obtain cell pellets alone, 5 ml of a phosphate buffer physiological saline (PBS) was added for the purpose of washing to obtain a cell suspension of the cell pellets. A gain, the resulting cell suspension was centrifuged at 4° C. and 1200 rpm for 5 minutes and the supernatant was removed. To the cell pellets after washing was added 1 ml of pure water to suspend them therein. Ultrasonic disruption (intensity: 40%, 30 seconds) was then performed and the monosaccharide in the disrupted cell suspension was labeled with ABEE, followed by analysis by HPLC. From the area thus obtained, the sugar content in the cells was determined using a calibration curve. With respect to the ketose, two peaks were found after labeling with ABEE so that the sugar content in the cells was determined from the calibration curves of both peaks.

ACHN tumor tissue = experiment: Tumor tissue histology (necrosis area, nuclear fission), ACHN xenograft mouse model; format: in vivo, mice; conditions: day 35
Experimental: The experiment of the present example used two human renal cell carcinoma cell lines (Caki-I and ACHN). Each cell was cultured under the wet environment of 37° C. and 5% CO2 by using a RPMI-1640 culture solution (2000 mg D-glucose/L) containing a 10% fetal calf serum, a HEPES buffer, and penicillin-streptomycin.
With respect to a renal cell carcinoma xenograft mouse model, a 1.0×10^5 cells/ml of a cell suspension was obtained by adjusting the cultured cells with a MEM culture solution and then 0.1 ml of the resulting suspension was injected into the femoral subcutaneous tissue of Female athymic nude mice (BALB/c-nu/nu, 6-week-old). After checking that the tumor volume was 200 mm^3 or more one week after the injection, the mice were provided for the experiment thereafter.
The day when the tumor size of the renal cell carcinoma xenograft mouse models became 200 mm^3 or more was called day 0 and the intraperitoneal injection of a D-allose-containing solution was started from day 1. The solution injected is 0.4 mL of physiological saline or a solution obtained by dissolving 100 mg/kg or 400 mg/kg of D-allose in 0.4 mL physiological saline. The resulting solution was intraperitoneally injected into three groups of mice (Control, 100 mg/kg of D-allose, and 400 mg/kg of D-allose) once a day for 5 weeks in total. The body weight of the mice and the long and short diameters of the tumor were measured over time twice a week. It is to be noted that the tumor volume was obtained as a product of long diameter×short diameter×short diameter of the tumor×0.5. On day 35 after the intraperitoneal injection was started, the tumor as well as the liver and kidney were excised from the mice and provided for the experiment performed thereafter.
The tissue of the excised tumor, kidney, and liver was fixed with a 4% paraformaldehyde phosphate buffer, embedded with paraffin, and sliced into a 4-μm thick section. The resulting sliced section was stained with hematoxylin and eosin and evaluated by a medical specialist in pathology. The influence of D-allose on the tumor tissue was evaluated by a necrosis area (%) and an image of the number of nuclear fissions (Cells/HPF). It is to be noted that the necrosis area was measured using an image recording software Nikon NIS—Elements D and figures after the decimal point were omitted. On the other hand, the number of nuclear fissions was obtained as an average of those of three fields of view and figures after the decimal point were also omitted. The anti-tumor effect of D-allose, more specifically, necrosis area and the number of nuclear fissions in the renal cell carcinoma xenograft mouse model are shown in Table 10.

[2] = 100 mg/kg intraperitoneal once a day
[3] = 400 mg/kg intraperitoneal once a day

`O=C[C@H](O)[C@H](O)[C@H](O)[C@H](O)CO` [D-allose] was tested, and the “D-glucose content in cell” value ([1]; PC-3, named sugar added to RPMI-1640 at 10 mM, 48 hours, HPLC after ABEE labeling) was 3.8 µg, the “Content in cell of the added sugar” value ([1]; human, 48 h, 10 mM) was 7.5 µg and the Necrosis area (ACHN tumor tissue; [2]) was 49%. The Nuclear fission (ACHN tumor tissue; [2]) was 1.2 Cells/HPF, the Necrosis area (ACHN tumor tissue; [3]) was 69% and the Nuclear fission (ACHN tumor tissue; [3]) was 0.9 Cells/HPF.

— US20250249025A1, “DRUG DELIVERY CARRIER UTILIZING PROPERTY OF D-ALLOSE BEING UPTAKEN BY CANCER CELL, DRUG DELIVERY METHOD, AND COMPOSITION FOR TREATING RENAL CELL CARCINOMA” (NATIONAL UNIVERSITY CORPORATION KAGAWA UNIVERSITY, priority 2019, published 2025)
